Marks after values point to notes of the source that are not given here.
Legend:
Format in all cases: in vivo
Settings in all cases: 100 = 100% disease control
[1] = system: Phakopsora pachyrhizi (the causal agent of Asian soybean rust); test: Test A: preventive spray on soybean seedlings, visual disease rating (100 = 100% control; * 50 ppm, ** 10 ppm, *** 250 ppm)
Outline: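 Preventive test: one day after spraying compound (acetone/water suspension, 250 ppm PEG400), seedlings received rust spore inoculum, 24 h in saturated air then 8 days in growth chamber, both at 22 °C. Disease control scored visually, 100 = complete, 0 = none, relative to untreated controls.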

[2] = system: Puccinia recondita f. sp. tritici (the causal agent of wheat leaf rust); test: Test B: preventive spray on wheat seedlings, disease rating (100 = 100% control; * 50 ppm, ** 10 ppm, *** 250 ppm)
Outline: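 Preventive test: Puccinia recondita f. sp. tritici spores were inoculated one day after run-off spraying of wheat seedlings with test suspension (acetone/water 50/50, 250 ppm PEG400). After 24 h in saturated air and 6 days in a growth chamber, both at 20° C, control was scored 0–100 versus untreated plants.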

[3] = system: Uncinula necator (the causal agent of grape powdery mildew); test: Test C: preventive spray on grape seedlings, disease rating (100 = 100% control; * 50 ppm, ** 10 ppm, *** 250 ppm)
Excerpt: General protocol for preparing test suspensions for Tests A-E: the test compounds were first dissolved in acetone in an amount equal to 3% of the final volume and then suspended at the desired concentration (in ppm) in acetone and purified water (50/50 mix by volume) containing 250 ppm of the surfactant […] (polyhydric alcohol esters). The resulting test suspensions were then used in Tests A-E.
The test solution was sprayed to the point of run-off on grape seedlings. The following day the seedlings were inoculated with a spore suspension of Uncinula necator (the causal agent of grape powdery mildew) and incubated in a growth chamber at 20° C. for 12 days, after which time disease ratings were made.
Results for Tests A-E are given in Table A. In the Table, a rating of 100 indicates 100% disease control and a rating of 0 indicates no disease control (relative to the controls). An asterisk “*” or a double asterisk “**” or a triple asterisk “***” next to the rating value indicates a 50 ppm, 10 ppm and 250 ppm test suspension was used, respectively. A dash (-) indicates the compound was not tested.

[4] = system: Zymoseptoria tritici (the causal agent of wheat leaf blotch); test: Test D: preventive spray on wheat seedlings, disease rating (100 = 100% control; * 50 ppm, ** 10 ppm, *** 250 ppm)
Outline: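 Compounds first dissolved in acetone (3% of final volume), then suspended in 50/50 acetone/water with 250 ppm PEG400 and sprayed to run-off on wheat seedlings; Z. tritici spores inoculated next day. Incubated saturated at 24° C. 48 h, then 20° C. 17 days; disease control rated 0–100 versus controls.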

[5] = system: Blumeria graminis f. sp. tritici (the causal agent of wheat powdery mildew); test: Test E: preventive spray on wheat seedlings, visual disease rating (100 = 100% control; * 50 ppm, ** 10 ppm, *** 250 ppm)
Outline: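 Test suspension (3% acetone, acetone/water 50/50, 250 ppm PEG400) sprayed to run-off on wheat seedlings; inoculated next day with powdery mildew spore dust and kept 8 days at 20 °C. Visual rating, 100 = full and 0 = no control relative to untreated.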

[6] = 10 ppm test suspension, soybean seedlings
[7] = 10 ppm test suspension, wheat seedlings
[8] = 250 ppm test suspension, grape seedlings
[9] = 250 ppm test suspension, wheat seedlings
[10] = 10 ppm test suspension, 0 = no control
[11] = 250 ppm test suspension, 0 = no control
[12] = 50 ppm test suspension, 0 = no control
[13] = 50 ppm test suspension, grape seedlings
[14] = 250 ppm test suspension, soybean seedlings

Row | Structure (SMILES) | Test A disease control rating [1, 6] | Test B disease control rating [2, 7] | Test C disease control rating [3, 8] | Test D disease control rating [4, 9] | Test E disease control rating [5, 9] | Test C disease control rating [3, 11] | Test D disease control rating [4, 11] | Test E disease control rating [5, 11] | Test A disease control rating [1, 12] | Test B disease control rating [2, 12] | other results
1 | C=C(C)COC(=O)c1cnn(Cc2ccc(O/C=C(\OCC)C(F)(F)F)cc2)c1 [compound 242] | 100% | 0% | 87*** % | 27*** % | 69*** % |  |  |  |  |  | 
2 | CCO/C(=C\Oc1ccc(Cn2cc(C(=O)OCC3CC3)cn2)cc1)C(F)(F)F [compound 220] | 100% | 0% | 85*** % | 28*** % | 92*** % |  |  |  |  |  | 
3 | N#Cc1ccc(OCC(O)(O)C(F)(F)F)cc1 [compound 142] | 92% | 100% | 19*** % | 100*** % | 99*** % |  |  |  |  |  | 
4 | CCOC(=O)c1cnn(Cc2ccc(O/C=C(\OCC)C(F)(F)F)c(C)c2)c1 [compound 410] |  |  |  |  |  | 88*** % | 11*** % | 13*** % |  |  | Test A disease control rating [1, 10]: 100%; Test B disease control rating [2, 10]: 0%
5 | CC#CCOC(=O)c1cnn(Cc2ccc(O/C=C(\OCC)C(F)(F)F)cc2)c1 [compound 243] | 100% | 0% | 29*** % | 0*** % | 56*** % |  |  |  |  |  | 
6 | CCOC(=O)c1cnn(Cc2ccc(C(O)CC(O)(O)C(F)(F)F)cc2)c1 (stereo not shown) [compound 51] | 0% | 0% | 81*** % | 3*** % | 0*** % |  |  |  |  |  | 
7 | CCO/C(=C\Oc1ccc(Cn2cc(C(=O)NC3CC3)cn2)cc1)C(F)(F)F [compound 413] |  |  |  |  |  | 61*** % | 90*** % | 35*** % |  |  | Test A disease control rating [1, 10]: 0%; Test B disease control rating [2, 10]: 0%
8 | CCOC(=O)c1cnn(Cc2ccc(OCC(O)(O)C(F)(F)F)cc2F)c1 [Compound 376] |  |  |  |  |  |  | 98*** % | 99*** % | 100% | 92% | Test C disease control rating [3, 12]: 36%
9 | CCOC(=O)c1cnn(Cc2ccc(O/C=C(\OCC)C(F)(F)F)c(C#N)c2)c1 [compound 416] |  |  |  |  |  | 34*** % | 0*** % | 0*** % | 81% | 0% | 
10 | CCO/C(=C\Oc1ccc(Cn2cc(C(=O)NC3CCCC3)cn2)cc1)C(F)(F)F [compound 428] |  |  |  |  |  | 43*** % | 2*** % | 0*** % |  |  | Test A disease control rating [1, 10]: 0%; Test B disease control rating [2, 10]: 0%
11 | CCO/C(=C\Oc1ccc(Cn2cc(C(=O)OCC(C)=O)cn2)cc1)C(F)(F)F [compound 216] | 100% | 0% | 20*** % | 37*** % | 87*** % |  |  |  |  |  | 
12 | CCO/C(=C\Oc1cccc(Cn2cc(C(=O)NC(C)C)cn2)c1)C(F)(F)F [compound 415] |  |  |  |  |  | 9*** % | 0*** % | 0*** % |  |  | Test A disease control rating [1, 10]: 0%; Test B disease control rating [2, 10]: 0%
13 | CCOC(=O)c1cnn(CSc2ccc(O/C=C(\OCC)C(F)(F)F)cc2)c1 [compound 457] |  |  |  |  |  |  |  |  |  |  | pest or weed control at 10 ppm ([1]; Phakopsora pachyrhizi, 10 ppm test suspension, 0 = no control): 89%; pest or weed control at 10 ppm ([2]; Puccinia recondita, 10 ppm test suspension, 0 = no control): 0%; pest or weed control at 250 ppm ([3]; Erysiphe necator, 250 ppm test suspension, 0 = no control): 73%; pest or weed control at 250 ppm ([4]; Zymoseptoria tritici, 250 ppm test suspension, 0 = no control): 7%; pest or weed control at 250 ppm ([5]; Blumeria graminis, 250 ppm test suspension, 0 = no control): 0%
14 | CCOC(=O)c1cnn(Cc2ccc(O/C=C(\OCC)C(F)(F)F)c(Cl)c2)c1 [compound 458] |  |  |  |  |  | 25*** % | 41*** % | 94*** % |  |  | Test A disease control rating [1, 10]: 100%; Test B disease control rating [2, 10]: 0%
15 | CCO/C(=C\Oc1ccc(Cn2cc(Br)cn2)cc1)C(F)(F)F [compound 183] | 0% | 0% | 70*** % | 66*** % | 0*** % |  |  |  |  |  | 
16 | CCO/C(=C\Oc1ccc(Cn2cc(C(=O)OCC(C)C)cn2)cc1)C(F)(F)F [compound 219] | 100% | 0% | 92*** % | 0*** % | 83*** % |  |  |  |  |  | 
17 | C#CCOC(=O)c1cnn(Cc2ccc(O/C=C(\OCC)C(F)(F)F)cc2)c1 [compound 185] | 100% | 0% |  | 0*** % | 95*** % |  |  |  |  |  | Test C disease control rating [3, 13]: 100* %
18 | CCO/C(=C\Oc1ccc(Cn2cc(C(=O)NCc3ncccn3)cn2)cc1)C(F)(F)F [compound 435] |  |  |  |  |  | 45*** % | 5*** % | 81*** % | 96% | 0% | 
19 | CCO/C(=C\Oc1ccc(Cn2cc(C(=O)OC)cn2)cc1)C(F)(F)F [compound 138] | 100% | 0% |  | 31*** % | 99*** % |  |  |  |  |  | Test C disease control rating [3, 13]: 100* %
20 | CCOC(=O)c1cnn(Cc2ccc(SCC3(C(F)(F)F)OCCO3)cc2)c1 [compound 115] |  |  | 58% | 19% | 56% |  |  |  |  |  | Test A disease control rating [1, 14]: 0%; Test B disease control rating [2, 9]: 0%
21 | CCOC(=COc1ccc(C2CN(C(C)=O)C2)cc1)C(F)(F)F [compound 373] |  |  |  |  |  | 56*** % | 99*** % | 98*** % | 81% | 0% | 
22 | N#Cc1ccc(OCC2(C(F)(F)F)OCCO2)cc1 [compound 98] |  |  | 31% | 77% | 0% |  |  |  |  |  | Test A disease control rating [1, 14]: 100%; Test B disease control rating [2, 9]: 100%
23 | CCO/C(=C\Oc1cccc(Cn2cc(C(=O)N(CC)CC)cn2)c1)C(F)(F)F [compound 404] |  |  |  |  |  | 44*** % | 11*** % | 0*** % | 0% | 0% | 
24 | CCO/C(=C\Oc1ccc(Cn2cc(C(=O)N(CC)CC)cn2)cc1)C(F)(F)F [compound 438] |  |  |  |  |  | 59*** % | 26*** % | 98*** % | 73% | 0% | 
25 | CCOC(=COc1ccc(OC(=O)c2ccccc2F)cc1)C(F)(F)F [compound 379] |  |  |  |  |  | 93*** % | 0*** % | 21*** % | 0% | 0% | 
26 | CCOC(=O)c1cnn(-c2ccc(O/C=C(\OCC)C(F)(F)F)cc2)c1 [compound 316] |  |  |  |  |  |  |  |  | 100% | 9% | Test C disease control rating [3, 12]: 100%; Test D disease control rating [4, 12]: 2%; Test E disease control rating [5, 12]: 73%
